Laboratory results from ChEMBL document CHEMBL1201862, “PubChem BioAssay data set” (2004).
Calls of active or inactive are those of the source.

Experiments:
[1] = molecular target: Dual specificity protein phosphatase 3 (Homo sapiens, UniProt P51452); test: SAR VHR1 Fluorescent Assay for In Vitro dose response studies Set 2. [Related pubchem assays (depositor defined):AID1654, AID1661, AID1878]; assay type: functional
[2] = molecular target: T1, Tyrosine-protein phosphatase non-receptor type 7 (Homo sapiens, UniProt P35236); test: SAR analysis of chemical inhibitors of HePTP using a Fluorescent assay - Set 2. [Related pubchem assays (depositor defined):AID1059, AID1077, AID1661, AID2085, AID521]; assay type: functional
T1 sequence (P35236 whole entry): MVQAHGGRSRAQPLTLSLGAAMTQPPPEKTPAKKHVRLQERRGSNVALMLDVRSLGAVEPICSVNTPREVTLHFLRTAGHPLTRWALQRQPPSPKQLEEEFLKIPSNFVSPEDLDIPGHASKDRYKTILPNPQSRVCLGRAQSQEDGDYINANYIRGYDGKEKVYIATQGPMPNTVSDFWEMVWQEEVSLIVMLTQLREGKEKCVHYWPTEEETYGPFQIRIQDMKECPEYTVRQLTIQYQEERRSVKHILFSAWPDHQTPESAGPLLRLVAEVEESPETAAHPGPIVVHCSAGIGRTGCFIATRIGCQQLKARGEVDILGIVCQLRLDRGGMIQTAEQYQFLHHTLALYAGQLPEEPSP

[3] = molecular target: Signal transducer and activator of transcription 3 (Homo sapiens, UniProt P40763); test: STAT3 activation with BCL3 mRNA and toxicity – cell-based, […], BCL3 qPCR, cytotoxicity, late-stage follow-up, panel member STAT3 Activation (AID 2049)
[4] = molecular target: Cystic fibrosis transmembrane conductance regulator/Golgi-associated PDZ and coiled-coil motif-containing protein (Homo sapiens, UniProt P13569+Q9HD26); test: potency against CAL PDZ-peptide interaction – biochemical, fluorescence polarization, Cerulean-tagged CAL PDZ, cherry-picks, dose response (AID 504773)
Chain of Cystic fibrosis transmembrane conductance regulator/Golgi-associated PDZ and coiled-coil motif-containing protein (P13569 whole entry, other chains not shown): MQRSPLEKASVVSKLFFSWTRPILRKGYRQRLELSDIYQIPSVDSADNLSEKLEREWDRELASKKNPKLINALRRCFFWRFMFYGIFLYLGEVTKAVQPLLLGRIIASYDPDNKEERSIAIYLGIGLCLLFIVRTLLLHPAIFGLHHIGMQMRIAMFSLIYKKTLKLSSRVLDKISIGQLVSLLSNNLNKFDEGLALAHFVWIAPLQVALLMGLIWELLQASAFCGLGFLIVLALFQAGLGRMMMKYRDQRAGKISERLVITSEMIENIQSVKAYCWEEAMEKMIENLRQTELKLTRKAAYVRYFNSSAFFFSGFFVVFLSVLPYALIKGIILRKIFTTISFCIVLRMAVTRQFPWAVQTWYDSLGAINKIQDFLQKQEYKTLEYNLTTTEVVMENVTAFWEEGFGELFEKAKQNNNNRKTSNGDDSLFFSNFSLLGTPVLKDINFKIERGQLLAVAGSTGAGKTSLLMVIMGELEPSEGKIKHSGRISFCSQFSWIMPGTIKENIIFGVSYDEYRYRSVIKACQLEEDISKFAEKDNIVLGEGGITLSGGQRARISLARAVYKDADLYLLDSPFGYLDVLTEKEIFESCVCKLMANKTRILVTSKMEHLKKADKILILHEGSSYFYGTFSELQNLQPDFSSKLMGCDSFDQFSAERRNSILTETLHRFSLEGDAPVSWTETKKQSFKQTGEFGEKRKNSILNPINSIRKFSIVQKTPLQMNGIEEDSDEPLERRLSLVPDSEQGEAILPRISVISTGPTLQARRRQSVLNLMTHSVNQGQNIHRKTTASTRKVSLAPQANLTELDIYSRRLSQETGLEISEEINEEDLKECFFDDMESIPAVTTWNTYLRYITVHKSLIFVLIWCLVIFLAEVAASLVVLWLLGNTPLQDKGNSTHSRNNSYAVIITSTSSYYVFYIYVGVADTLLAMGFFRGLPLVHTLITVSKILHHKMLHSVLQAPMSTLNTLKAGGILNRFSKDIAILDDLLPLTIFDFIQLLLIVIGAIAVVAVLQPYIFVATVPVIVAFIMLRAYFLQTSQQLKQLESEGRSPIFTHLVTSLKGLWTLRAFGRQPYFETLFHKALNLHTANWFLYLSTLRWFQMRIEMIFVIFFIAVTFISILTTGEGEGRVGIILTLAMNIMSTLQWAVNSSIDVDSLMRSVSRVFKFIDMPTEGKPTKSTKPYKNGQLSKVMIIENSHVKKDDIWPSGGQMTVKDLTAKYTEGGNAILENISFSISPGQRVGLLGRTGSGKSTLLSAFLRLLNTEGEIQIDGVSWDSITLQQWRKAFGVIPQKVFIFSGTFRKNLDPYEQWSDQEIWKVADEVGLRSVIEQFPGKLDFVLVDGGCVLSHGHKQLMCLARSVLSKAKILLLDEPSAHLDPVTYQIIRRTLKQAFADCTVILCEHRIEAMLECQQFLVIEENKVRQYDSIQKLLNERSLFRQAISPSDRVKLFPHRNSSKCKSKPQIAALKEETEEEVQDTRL

Chain of Signal transducer and activator of transcription 3 (P40763 whole entry): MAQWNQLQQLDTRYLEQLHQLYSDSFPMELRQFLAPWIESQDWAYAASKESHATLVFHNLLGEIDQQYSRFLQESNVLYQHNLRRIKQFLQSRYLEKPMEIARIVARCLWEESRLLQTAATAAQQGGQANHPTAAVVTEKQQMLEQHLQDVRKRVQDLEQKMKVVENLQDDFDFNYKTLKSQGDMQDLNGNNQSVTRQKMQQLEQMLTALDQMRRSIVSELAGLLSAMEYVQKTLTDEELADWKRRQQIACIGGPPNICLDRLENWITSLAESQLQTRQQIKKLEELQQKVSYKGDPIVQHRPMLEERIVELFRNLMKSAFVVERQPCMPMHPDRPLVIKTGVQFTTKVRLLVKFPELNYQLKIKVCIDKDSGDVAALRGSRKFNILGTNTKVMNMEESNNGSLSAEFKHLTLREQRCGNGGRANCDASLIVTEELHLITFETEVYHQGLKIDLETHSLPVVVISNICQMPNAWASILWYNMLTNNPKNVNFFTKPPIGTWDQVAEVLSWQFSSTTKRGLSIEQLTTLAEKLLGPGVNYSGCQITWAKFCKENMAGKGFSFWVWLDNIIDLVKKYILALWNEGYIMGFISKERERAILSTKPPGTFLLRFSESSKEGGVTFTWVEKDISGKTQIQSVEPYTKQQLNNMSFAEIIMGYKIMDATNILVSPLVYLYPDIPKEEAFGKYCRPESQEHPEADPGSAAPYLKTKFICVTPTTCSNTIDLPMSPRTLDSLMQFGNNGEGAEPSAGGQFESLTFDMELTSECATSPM
Chain of Dual specificity protein phosphatase 3 (P51452 whole entry): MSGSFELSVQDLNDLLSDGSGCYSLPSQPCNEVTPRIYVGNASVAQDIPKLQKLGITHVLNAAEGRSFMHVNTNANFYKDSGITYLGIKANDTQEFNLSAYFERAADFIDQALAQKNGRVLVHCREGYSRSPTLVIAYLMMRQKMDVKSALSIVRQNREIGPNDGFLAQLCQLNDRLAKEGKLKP

In the case of `COc1cc(C(=S)NCc2ccc(C(F)(F)F)cc2)ccc1O`, the IC50 [1] is reported as 86.9 µM (active) and the IC50 [2] is reported as > 100 µM (inactive).

With `O=C(Nc1ccccc1Cl)c1cc(C2CC2)on1` the EC50 [3] was 6.08 µM (active).

With `OC(c1ccccc1)(c1ccccc1)c1nccc2ccccc12` the AC50 [4] was 44.9 µM (active).
